# According to patent US20250352550A1, “SUBSTITUTED FUROPYRIDINES FOR THERAPEUTIC USE” (MASARYKOVA UNIVERZITA, priority 2022, published 2025):
# Tests used:
# [1] = target: T1, FLT3 (Homo sapiens, UniProt P36888); test: HotSpot radiometric kinase assay (Reaction Biology), FLT3; format: biochemical; details: 4 nM kinase, substrate ABLtide 20 μM, 33P-ATP, 120 minutes at room temperature
# T1 construct: purchased Reaction Biology
# T1 sequence (P36888 27-993): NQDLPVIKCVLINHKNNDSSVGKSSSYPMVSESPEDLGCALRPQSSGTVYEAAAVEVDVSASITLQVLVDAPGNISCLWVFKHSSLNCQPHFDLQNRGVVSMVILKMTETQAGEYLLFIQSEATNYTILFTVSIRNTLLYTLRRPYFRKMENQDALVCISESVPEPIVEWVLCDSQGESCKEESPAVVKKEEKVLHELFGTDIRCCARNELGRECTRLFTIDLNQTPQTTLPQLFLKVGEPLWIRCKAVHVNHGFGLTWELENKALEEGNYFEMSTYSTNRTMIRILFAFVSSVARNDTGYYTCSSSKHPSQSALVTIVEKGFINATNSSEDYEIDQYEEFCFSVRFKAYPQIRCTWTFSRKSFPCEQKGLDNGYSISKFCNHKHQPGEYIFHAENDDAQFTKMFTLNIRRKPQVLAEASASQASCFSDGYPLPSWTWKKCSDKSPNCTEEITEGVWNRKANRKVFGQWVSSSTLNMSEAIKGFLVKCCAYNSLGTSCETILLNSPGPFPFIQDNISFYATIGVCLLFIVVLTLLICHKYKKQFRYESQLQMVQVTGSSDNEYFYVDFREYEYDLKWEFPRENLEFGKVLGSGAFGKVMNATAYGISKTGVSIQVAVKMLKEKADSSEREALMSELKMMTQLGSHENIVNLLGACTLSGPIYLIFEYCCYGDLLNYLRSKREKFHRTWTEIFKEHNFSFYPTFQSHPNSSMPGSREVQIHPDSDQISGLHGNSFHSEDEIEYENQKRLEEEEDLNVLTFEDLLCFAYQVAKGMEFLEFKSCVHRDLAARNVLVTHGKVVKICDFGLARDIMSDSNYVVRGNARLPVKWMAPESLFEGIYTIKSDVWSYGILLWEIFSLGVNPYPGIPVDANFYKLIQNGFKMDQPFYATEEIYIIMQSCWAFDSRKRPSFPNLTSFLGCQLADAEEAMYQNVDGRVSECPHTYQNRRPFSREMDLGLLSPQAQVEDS
# Description: (§1) The compounds were profiled in the HotSpot radiometric assays (Reaction Biology).
# (§2) Briefly, • 1. Substrate indicated in Table 1 was dissolved in freshly prepared reaction buffer (20 mM HEPES (pH 7.5), 10 mM MgCl2, 1 mM EGTA, 0.01% Brij35, 0.02 mg/ml BSA, 0.1 mM Na3VO4, 2 mM DTT, 1% DMSO) at the concentration indicated in Table 1. • 2. Corresponding kinase (concentration indicated in Table 1) was added and the mixture was gently mixed. • 3. Tested compound dissolved in DMSO was added into the kinase reaction mixture. • 4. ^33P-ATP (specific activity 0.01 μCi/μL final) was added into the reaction mixture to initiate the reaction. • 5. The kinase reaction was incubated for 120 minutes at room temperature. • 6. Reaction mixture was spotted onto P81 ion exchange paper (Whatman K 3698-915). • 7. The filters were extensively washed with 0.754 phosphoric acid. • 7. The radioactive phosphorylated substrate remaining on the filter paper was measured.
# (§3) Kinase activity data were expressed as the percent remaining kinase activity in tested samples compared to the vehicle (DMSO) reactions. IC50 values and curve fits were obtained using Prism4 Software (GraphPad).
# Table 2 summarizes the inhibitory activities of indicated compounds tested in the in vitro kinase assays described above.
# [2] = target: T2, DDR1 (Homo sapiens, UniProt Q08345); test: HotSpot radiometric kinase assay (Reaction Biology), DDR1; format: biochemical; details: 200 nM kinase, substrate IRS1tide 20 μM, 33P-ATP, 120 minutes at room temperature
# T2 construct: purchased Reaction Biology
# T2 sequence (Q08345 19-913): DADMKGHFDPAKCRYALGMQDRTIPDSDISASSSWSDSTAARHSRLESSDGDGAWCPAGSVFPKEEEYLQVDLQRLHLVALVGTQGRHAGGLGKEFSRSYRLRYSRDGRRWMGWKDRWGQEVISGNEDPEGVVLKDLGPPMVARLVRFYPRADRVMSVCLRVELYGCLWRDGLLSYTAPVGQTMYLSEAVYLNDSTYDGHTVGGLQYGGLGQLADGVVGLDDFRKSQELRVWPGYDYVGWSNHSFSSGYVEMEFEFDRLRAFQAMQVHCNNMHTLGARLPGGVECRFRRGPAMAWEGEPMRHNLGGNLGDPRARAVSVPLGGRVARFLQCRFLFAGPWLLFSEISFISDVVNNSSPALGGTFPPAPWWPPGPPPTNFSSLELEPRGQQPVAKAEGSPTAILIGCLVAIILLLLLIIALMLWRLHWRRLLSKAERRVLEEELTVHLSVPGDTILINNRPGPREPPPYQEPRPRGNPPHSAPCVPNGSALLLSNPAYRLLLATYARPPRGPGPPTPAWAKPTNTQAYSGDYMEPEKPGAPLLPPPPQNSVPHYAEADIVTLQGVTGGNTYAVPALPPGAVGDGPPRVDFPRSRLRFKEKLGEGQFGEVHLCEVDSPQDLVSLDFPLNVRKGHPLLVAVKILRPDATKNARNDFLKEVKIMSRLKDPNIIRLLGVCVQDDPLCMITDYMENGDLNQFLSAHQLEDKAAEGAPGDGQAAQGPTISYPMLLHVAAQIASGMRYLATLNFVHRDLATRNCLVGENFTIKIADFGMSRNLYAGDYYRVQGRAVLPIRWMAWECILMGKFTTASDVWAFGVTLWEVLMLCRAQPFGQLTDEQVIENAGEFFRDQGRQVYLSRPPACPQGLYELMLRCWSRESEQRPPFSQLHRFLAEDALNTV
# Description: as §1
# as §2, with “Reaction mixture was spotted onto P81 ion exchange paper (Whatman K 3698-915). • 7. The filters were extensively washed with 0.754 phosphoric acid. • 7.” left out
# as §3
SMILES,IC50 [1] [nM],IC50 [2] [nM]
"Cn1ccc(-c2coc3cc(-c4ccc(N5CCNCC5)cc4)cnc23)n1 [Preparative Example 37, 3-(1-methyl-1H-pyrazol-3-yl)-6-(4-(piperazin-1-yl)phenyl)furo[3,2-b]pyridine]",282,222
"O=[N+]([O-])c1cccc(-c2coc3cc(-c4ccc(N5CCNCC5)cc4)cnc23)c1 [Preparative Example 40, 3-(3-nitrophenyl)-6-(4-(piperazin-1-yl)phenyl)furo[3,2-b]pyridine]",142,98
"Cc1ccc(-c2coc3cc(-c4ccc(N5CCNCC5)cc4)cnc23)cc1 [Preparative Example 43, 6-(4-(piperazin-1-yl)phenyl)-3-(p-tolyl)furo[3,2-b]pyridine]",175,126
"CC(C)(C)Sc1cccc(-c2coc3cc(-c4ccc(N5CCNCC5)cc4)cnc23)c1 [Preparative Example 46, 3-(3-(tert-butylthio)phenyl)-6-(4-(piperazin-1-yl)phenyl)furo[3,2-b]pyridine]",578,586
"c1cc(-c2coc3cc(-c4ccc(N5CCNCC5)cc4)cnc23)co1 [Preparative Example 57, 3-(furan-3-yl)-6-(4-(piperazin-1-yl)phenyl)furo[3,2-b]pyridine]",22,172
"CN1CCN(c2ccc(-c3cnc4c(-c5ccncc5)coc4c3)cc2)CC1 [Preparative Example 58, 6-(4-(4-methylpiperazin-1-yl)phenyl)-3-(pyridin-4-yl)furo[3,2-b]pyridine]",31,364
"NS(=O)(=O)c1cccc(-c2coc3cc(-c4ccc(N5CCNCC5)cc4)cnc23)c1 [Preparative Example 64, 3-(6-(4-(piperazin-1-yl)phenyl)furo[3,2-b]pyridin-3-yl)benzenesulfonamide]",26,134
"COCc1cccc(-c2coc3cc(-c4ccc(N5CCNCC5)cc4)cnc23)c1 [Preparative Example 70, 3-(3-(methoxymethyl)phenyl)-6-(4-(piperazin-1-yl)phenyl)furo[3,2-b]pyridine]",54,196
"FC(F)(F)c1cccc(-c2coc3cc(-c4ccc(N5CCNCC5)cc4)cnc23)c1 [Preparative Example 73, 6-(4-(piperazin-1-yl)phenyl)-3-(3-(trifluoromethyl)phenyl)furo[3,2-b]pyridine]",717,966
"CCOC(=O)Nc1cccc(-c2coc3cc(-c4ccc(N5CCN(C)CC5)cc4)cnc23)c1 [Preparative Example 83, ethyl (3-(6-(4-(4-methylpiperazin-1-yl)phenyl)furo[3,2-b]pyridin-3-yl)phenyl)carbamate]",99,622
"CN1CCN(c2ccc(Nc3cnc4c(-c5ccccc5)coc4c3)cc2)CC1 [Preparative Example 101, N-(4-(4-methylpiperazin-1-yl)phenyl)-3-phenylfuro[3,2-b]pyridin-6-amine]",146,347
"c1ccc(Oc2cccc(-c3coc4cc(-c5ccc(N6CCNCC6)cc5)cnc34)c2)cc1 [Preparative Example 104, 3-(3-phenoxyphenyl)-6-(4-(piperazin-1-yl)phenyl)furo[3,2-b]pyridine]",121,252
"FC(F)(F)Oc1cccc(-c2coc3cc(-c4ccc(N5CCNCC5)cc4)cnc23)c1 [Preparative Example 113, 6-(4-(piperazin-1-yl)phenyl)-3-(3-(trifluoromethoxy)phenyl)furo[3,2-b]pyridine]",649,869
"FC(F)(F)COc1cccc(-c2coc3cc(-c4ccc(N5CCNCC5)cc4)cnc23)c1 [Preparative Example 116, 6-(4-(piperazin-1-yl)phenyl)-3-(3-(2,2,2-trifluoroethoxy)phenyl)furo[3,2-b]pyridine]",353,673
"CS(=O)(=O)NCc1cccc(-c2coc3cc(-c4ccc(N5CCNCC5)cc4)cnc23)c1 [Preparative Example 125, N-(3-(6-(4-(piperazin-1-yl)phenyl)furo[3,2-b]pyridin-3-yl)benzyl)methanesulfonamide]",21,198
"CN(C)c1cccc(-c2coc3cc(-c4ccc(N5CCNCC5)cc4)cnc23)c1 [Preparative Example 131, N,N-dimethyl-3-(6-(4-(piperazin-1-yl)phenyl)furo[3,2-b]pyridin-3-yl)aniline]",345,385
"CN1CCN(c2ccc(-c3cnc4c(-c5cccc(C(=O)c6ccccc6)c5)coc4c3)cc2)CC1 [Preparative Example 133, (3-(6-(4-(4-methylpiperazin-1-yl)phenyl)furo[3,2-b]pyridin-3-yl)phenyl)(phenyl)methanone]",269,472
"CN1CCN(c2ccc(-c3cnc4c(-c5cccc(CNC(=O)OC(C)(C)C)c5)coc4c3)cc2)CC1 [Preparative Example 135, tert-butyl (3-(6-(4-(4-methylpiperazin-1-yl)phenyl)furo[3,2-b]pyridin-3-yl)benzyl)carbamate]",350,423
"CC(=O)NCc1cccc(-c2coc3cc(-c4ccc(N5CCN(C)CC5)cc4)cnc23)c1 [Preparative Example 137, N-(3-(6-(4-(4-methylpiperazin-1-yl)phenyl)furo[3,2-b]pyridin-3-yl)benzyl)acetamide]",78,206
"CCNS(=O)(=O)Cc1cccc(-c2coc3cc(-c4ccc(N5CCN(C)CC5)cc4)cnc23)c1 [Preparative Example 141, N-ethyl-1-(3-(6-(4-(4-methylpiperazin-1-yl)phenyl)furo[3,2-b]pyridin-3-yl)phenyl)methanesulfonamide]",805,763
"CN1CCN(c2ccc(-c3cnc4c(-c5cccc(CS(=O)(=O)N(C)C)c5)coc4c3)cc2)CC1 [Preparative Example 145, N,N-dimethyl-1-(3-(6-(4-(4-methylpiperazin-1-yl)phenyl)furo[3,2-b]pyridin-3-yl)phenyl)methane-sulfonamide]",118,773
"CSc1cccc(-c2coc3cc(-c4ccc(N5CCN(C)CC5)cc4)cnc23)c1 [Preparative Example 147, 6-(4-(4-methylpiperazin-1-yl)phenyl)-3-(3-(methylthio)phenyl)furo[3,2-b]pyridine]",203,236
"CCNC(=O)Cc1cccc(-c2coc3cc(-c4ccc(N5CCNCC5)cc4)cnc23)c1 [Preparative Example 152, N-ethyl-2-(3-(6-(4-(piperazin-1-yl)phenyl)furo[3,2-b]pyridin-3-yl)phenyl)acetamide]",24,73
"CN1CCN(c2ccc(-c3cnc4c(-c5cccc(CC(N)=O)c5)coc4c3)cc2)CC1 [Preparative Example 154, 2-(3-(6-(4-(4-methylpiperazin-1-yl)phenyl)furo[3,2-b]pyridin-3-yl)phenyl)acetamide]",22,157
